Literature values as cited in US20260199305A1, “LONG-ACTING ORAL PHARMACEUTICAL COMPRISING HYPOXIA-INDUCIBLE FACTOR PROLYL HYDROLASE INHIBITOR AND USE THEREOF” (Kind Pharmaceutical, priority 2023, published 2026).
Where two headings read alike, the source gives them in different places.

Settings: cited from earlier work

SMILES	t½ (literature value)	also measured
O=C(O)CNC(=O)C1C(=O)N(C2CCCCC2)C(=O)N(C2CCCCC2)C1=O [Daprodustat]		t½ (in patients with chronic kidney disease anemia, literature): ~ 7 hours
O=C(O)CNC(=O)c1c(O)c2ccccc2n(OCC2CC2)c1=O [Desidustat]	6 to 15 h	
O=C(O)CNC(=O)c1c(O)cc(CCc2ccccc2)n2ncnc12 [Enarodustat]	8.2 to 8.7 h	
O=c1c(-n2ccnn2)c[nH]n1-c1cc(N2CCOCC2)ncn1 [Molidustat]	4 to 10 h	
Cc1nc(C(=O)NCC(=O)O)c(O)c2ccc(Oc3ccccc3)cc12 [Roxadustat]	12 to 15 h	
Cn1c(=O)cc(N2CCC[C@@H](N)C2)n(Cc2cc(F)ccc2C#N)c1=O [Trelagliptin]		elimination half-life (t½) (literature value (J Diabetes Investig 2018)): 38.44 to 54.26 h
O=C(O)CNC(=O)c1ncc(-c2cccc(Cl)c2)cc1O [Vadadustat]	4.7 to 9.1 h	
